# Experimental data reported in paper PMC12848680, “Microbial Cross-Talk: Unlocking the Cytochalasin Diversity from a Termite-Associated Xylaria” (JACS Au, 2025).
# Read-outs that look alike come from different tables or passages of the source.
# Key:
# [1] = test system: A549 (human lung carcinoma cell line); assay: Cytotoxicity assay (MTT, 5 d) on A549; type: cell-based; conditions: for IC50: Homo sapiens, A549, 120 h, MTT, 5 d incubation; for Cytotoxic activity against A549 (in words): positive control doxorubicin
# Method: (§1) Cytotoxicity assay: A549 (human lung carcinoma cell line; ACC 107) and CHO-K1 (chinese hamster ovary cells; ACC 110) were obtained from the German Collection of Microorganisms and Cell Cultures (DSMZ) and cultured under the conditions recommended by the depositor. Cells were propagated in Dulbeccos’s Modified Eagle’s Medium (DMEM) and Ham’s F12 medium, respectively, supplemented with 10% fetal bovine serum (FBS), and seeded at 6×10^3 cells per well of 96-well plates in 120 μL of complete medium. After 2 h of equilibration (37 °C, 5% CO2), the cells were treated with a serial dilution of cytochalasins in 60 µL growth medium. Cytochalasins, doxorubicin as reference, as well as the solvent control were tested as duplicates in two independent experiments. After 5 d of incubation (37 °C, 5% CO2), a total of 20 μL of 5 mg/ml MTT (thiazolyl blue tetrazolium bromide) in phosphate -buffered saline (PBS) were added to each well […]
# (§2) and the cells were further incubated for 2 h at 37 °C before the supernatant was discarded.
# (§3) Subsequently, the cells were washed with 100 μL of PBS and treated with 100 μl of 2-propanol/10 N HCl (250:1) to dissolve formazan granules. Cell viability was measured as percentage relative to the respective solvent control by measuring the absorbance at 570 nm using a microplate reader (Tecan Infinite M200Pro). GraphPad Prism (version 10.0.3, GraphPad, Boston, MA, USA) was used for sigmoidal curve fitting to determine the IC50 values.
# in vitro [2] = type: in vitro ADME, mouse; conditions: for half-life at 1 μM: 1 μM compound, pooled CD-1 mouse plasma, read-out: Mouse plasma t1/2
# Method: Plasma stability assays: To determine stability in plasma, the compound (1 μM) was incubated with pooled CD-1 mouse plasma (Neo Biotech, Nanterre, France). Samples were taken by mixing aliquots with 4 volumes of cold internal standard solution (12.5 nM diphenhydramine in 10% methanol/acetonitrile). The plasma stability of procain, propantheline and diltiazem were determined in parallel to confirm the enzymatic activity. Samples were stored on ice until the end of the incubation and precipitated protein was removed by centrifugation (15 min, 4 °C, 4,000 g, two centrifugation steps). Concentration of the remaining test compound at the different time points was analyzed by HPLC-MS/MS (Vanquish Flex coupled to a TSQ Altis Plus, Thermo Fisher, Dreieich, Germany). […]
# in vitro [3] = type: in vitro ADME, mouse; conditions: for microsomal CLint: C57BL/6, mouse, microsomes; for half-life: mouse, read-out: Mouse liver microsome t1/2; for half-life / Mouse liver microsome t1/2: 1 μM compound, 0.5 mg/mL pooled C57BL/6 microsomes
# Method: Assays in liver microsomes: For metabolic stability, the compound (1 μM) was incubated with 0.5 mg/mL pooled mouse (C57BL/6) microsomes (Xenotech, Kansas City, USA), 2 mM NADPH, 10 mM MgCl2 at 37 °C for 120 min on a microplate shaker. The metabolic stability of testosterone, verapamil and ketoconazole were determined in parallel to confirm the enzymatic activity of mouse/rat liver microsomes. The incubation was stopped after defined time points by precipitation of aliquots of the incubation mixture with 2 volumes of cold internal standard solution (15 nM diphenhydramine in 10% methanol/acetonitrile). Samples were stored on ice until the end of the incubation and precipitated protein was removed by centrifugation (15 min, 4 °C, and 4,000 g). Concentration of the remaining test compound at the different time points was analyzed by HPLC-MS/MS (Vanquish Flex coupled to a TSQ Altis Plus, Thermo Fisher, Dreieich, Germany) and used to determine half-life (t1/2). […]
# [4] = test system: Staphylococcus aureus Newman; assay: Antibacterial activity against S. aureus Newman; type: cell-based; conditions: Table S22
# [5] = test system: CHO-K1 (chinese hamster ovary cells); assay: Cytotoxicity assay (MTT, 5 d) on CHO-K1; type: cell-based; conditions: Cricetulus griseus, CHO-K1, 120 h
# Method: as §1, §2, §3
# E. coli ΔacrB (JW0451-2) = assay: Antibacterial activity against E. coli ΔacrB; type: cell-based; conditions: Escherichia coli, read-out: E. coli ΔacrB (JW0451-2) MIC
# [6] = Table 1, intrinsic clearance from microsomal metabolism data
# [7] = Table S22, intrinsic clearance calculated from microsomal metabolism data
Structure (SMILES),IC50 ([1]; Table 1),IC50 ([1]; Table S22),half-life at 1 μM (in vitro [2]; Table 1),microsomal CLint (in vitro [3]; [6]),"half-life (in vitro [3]; Table 1, 120 min)",MIC [4],"IC50 ([5]; Table 1, 5 d incubation)",MIC (E. coli ΔacrB (JW0451-2)),Cytotoxic activity against A549 (in words) [1],half-life at 1 μM (in vitro [2]; Table S22),microsomal CLint (in vitro [3]; [7]),half-life (in vitro [3]; Table S22),"IC50 ([5]; Table S22, 5 d incubation)",Mouse liver microsome t1/2 (in vitro [3]; Table S22),"Compound remaining in mouse plasma (in vitro [2]; Table 1, at 240 min)","Compound remaining in mouse plasma (in vitro [2]; Table S22, at 4 h)"
"CC(=O)OC1C2OC2C(C)(O)C(=O)C(C)CC=CC2C3OC3(C)C(C)C3C(Cc4cccc(Br)c4)NC(=O)C213 (stereo not shown) [Compound 18, m-bromo-19,20-epoxycytochalasin Q]",0.19 ± 0.01 µg/mL,0.31 ± 0.01 µg/mL,> 240 min,77 ± 19 µL/min/mg,19 ± 4 min,> 64 µg/mL,0.94 ± 0.21 µg/mL,> 64 µg/mL,–,–,–,–,–,–,–,–
"CC1CC=CC2C3OC3(C)C(C)C3C(Cc4cccc(Cl)c4)NC(=O)C23C(O)C2OC2C(C)(O)C1=O (stereo not shown) [Compound 15, m-chloro-deacetyl-19,20-epoxycytochalasin Q]",0.04 ± 0.03 µg/mL,0.08 ± 0.03 µg/mL,> 240 min,39 ± 3 µL/min/mg,36 ± 3 min,> 64 µg/mL,0.81 ± 0.1 µg/mL,> 64 µg/mL,lower nanomolar activities,–,–,–,–,–,–,–
"C=C1C(C)C2C(Cc3ccccc3)NC(=O)C23C(C=CCC(C)C(=O)C(C)(O)C2OC2C3OC(C)=O)C1O (stereo not shown) [Compound 9, 19,20-epoxycytochalasin D]",–,–,> 240 min,35 ± 3 µL/min/mg,40 ± 3.7 min,> 64 µg/mL,10.3 ± 5.07 µg/mL,> 64 µg/mL,–,–,–,–,–,–,–,–
"C#CCCC1(CCC(=O)OC2C(=C)C(C)C3C(Cc4ccccc4)NC(=O)C34C2C=CCC(C)C(=O)C(C)(O)C2OC2C4OC(C)=O)N=N1 (stereo not shown) [Compound 26, 7-diazirin-19,20-epoxycytochalasin D]",–,10.3 µg/mL,–,–,–,> 64 µg/mL,–,> 64 µg/mL,–,> 240 min,1020 ± 120 µL/min/mg,1.4 ± 0.1 min,7.02 ± 1.16 µg/mL,–,–,–
"CC(=O)OC1C2OC2C(C)(O)C(=O)C(C)CC=CC2C(O)C(C)=C(C)C3C(Cc4ccccc4)NC(=O)C213 (stereo not shown) [Compound 3, 19,20-epoxycytochalasin C]",0.34 ± 0.13 µg/mL,–,> 240 min,31.6 ± 1.4 µL/min/mg,43.9 ± 2 min,> 64 µg/mL,0.51 ± 0.27 µg/mL,> 64 µg/mL,comparable to the positive control,–,–,–,–,–,–,–
"CC(=O)OC1C2OC2C(C)(O)C(=O)C(C)CC=CC2C3OC3(C)C(C)C3C(Cc4cccc(Cl)c4)NC(=O)C213 (stereo not shown) [Compound 14, m-chloro-19,20-epoxycytochalasin Q]",–,0.11 ± 0.05 µg/mL,–,–,–,> 64 µg/mL,–,> 64 µg/mL,–,> 240 min,45.7 ± 1.6 µL/min/mg,30.4 ± 1.1 min,0.69 ± 0.07 µg/mL,–,–,–
"CC(=O)O[C@@H]1/C=C/[C@@](C)(O)C(=O)[C@@H](C)C/C=C/[C@H]2[C@@H]3O[C@]3(C)[C@@H](C)[C@H]3[C@H](Cc4cccc(Cl)c4)NC(=O)[C@@]312 [Compound 13, m-chloro-cytochalasin Q]",–,0.14 ± 0.02 µg/mL,–,–,–,> 64 µg/mL,–,> 64 µg/mL,–,> 240 min,95 ± 15 µL/min/mg,15 ± 3 min,0.41 ± 0.06 µg/mL,–,–,–
"C#CCCC1(CCC(=O)OC2C(C)=C(C)C3C(Cc4ccccc4)NC(=O)C34C2C=CCC(C)C(=O)C(C)(O)C2OC2C4OC(C)=O)N=N1 (stereo not shown) [Compound 25, 7-diazirin-19,20-epoxycytochalasin C]",24.9 µg/mL,–,> 240 min,907 ± 388 µL/min/mg,1.7 ± 0.6 min,> 64 µg/mL,14.2 ± 1.93 µg/mL,> 64 µg/mL,pronounced reduced activity,–,–,–,–,–,–,–
"CC1=C(C)C2C(Cc3cccc(Cl)c3)NC(=O)C23C(O)C2OC2C(C)(O)C(=O)C(C)CC=CC3C1O (stereo not shown) [Compound 12, m-chloro-deacetyl-19,20-epoxycytochalasin C]",–,> 37 µg/mL,–,–,–,> 64 µg/mL,–,> 64 µg/mL,–,> 240 min,39 ± 12 µL/min/mg,36 ± 10 min,2.02 ± 1.2 µg/mL,–,–,–
"CC(=O)OC1C2OC2C(C)(O)C(=O)C(C)CC2OC2C2C3OC3(C)C(C)C3C(Cc4ccccc4)NC(=O)C132 (stereo not shown) [Compound 8, 19,20-epoxycytochalasin R]",–,> 37 µg/mL,–,–,–,> 64 µg/mL,–,> 64 µg/mL,–,> 240 min,37 ± 4 µL/min/mg,38 ± 4 min,17.3 ± 8.94 µg/mL,–,–,–
"CC1CC=CC2C3OC3(C)C(C)C3C(Cc4ccccc4Br)NC(=O)C23C(=O)C2OC2C(C)(O)C1=O (stereo not shown) [Compound 20, o-bromo-19,20-epoxy-21-oxocytochalasin Q]",–,0.62 ± 0.04 µg/mL,–,–,–,> 64 µg/mL,–,> 64 µg/mL,–,> 240 min,234 ± 28 µL/min/mg,6 ± 0.7 min,1.38 ± 0.04 µg/mL,–,–,–
"CC(=O)OC1C2OC2C(C)(O)C(=O)C(C)CC=CC2C(O)C3(C)OC3(C)C3C(Cc4ccccc4)NC(=O)C213 (stereo not shown) [Compound 27, 19,20-epoxycytochalasin N]",0.84 ± 0.04 µg/mL,–,133 ± 9 min,< 11.6 µL/min/mg,> 120 min,> 64 µg/mL,10.6 ± 1.42 µg/mL,> 64 µg/mL,–,–,–,–,–,>120 min,–,–
"CC1CC=CC2C3OC3(C)C(C)C3C(Cc4ccccc4)NC(=O)C23C(O)C2OC2C(C)(O)C1=O (stereo not shown) [Compound 7, deacetyl-19,20-epoxycytochalasin Q]",–,2.56 ± 0.94 µg/mL,–,–,–,> 64 µg/mL,–,> 64 µg/mL,–,> 240 min,14 ± 3 µL/min/mg,102 ± 24 min,3.78 ± 0.3 µg/mL,–,–,–
"CC(=O)OC1C2OC2C(C)(O)C(=O)C(C)CC=CC2C(O)C(C)=C(C)C3C(CC(=O)O)NC(=O)C213 (stereo not shown) [Compound 22, xylachalasin A]",> 37 µg/mL,–,> 240 min,–,> 120 min,> 64 µg/mL,> 37 µg/mL,> 64 µg/mL,–,–,< 11.6 µL/min/mg,–,–,>120 min,–,–
"COc1cccc2c1C(=O)c1c(O)c3c(c(O)c1C2=O)C[C@@](O)(C(=O)CO)C[C@@H]3O[C@H]1C[C@H](N)[C@H](O)[C@H](C)O1 [doxorubicin, reference compound]",0.3 µg/mL,–,–,–,–,–,–,–,–,–,–,–,–,–,–,–
"CC(=O)OC1C2OC2C(C)C(=O)C(C)CC=CC2C(O)C(C)=C(C)C3C(Cc4ccccc4)NC(=O)C213 (stereo not shown) [Compound 5, 18-desoxy-19,20-epoxycytochalasin C]",0.87 ± 1.38 µg/mL,–,> 240 min,132 ± 38 µL/min/mg,11 ± 3 min,> 64 µg/mL,9.88 ± 7.69 µg/mL,> 64 µg/mL,comparable to the positive control,–,–,–,–,–,74 ± 5%,>240 (74 ± 5% at 4 h)
"CC(=O)OC1C2OC2C(C)C(=O)C(C)CC=CC2C3OC3(C)C(C)C3C(Cc4cccc(Cl)c4)NC(=O)C213 (stereo not shown) [Compound 16, m-chloro-18-desoxy-19,20-epoxycytochalasin Q]",0.08 ± 0.02 µg/mL,1.02 ± 0.13 µg/mL,> 240 min,984 ± 105 µL/min/mg,1.4 ± 0.1 min,> 64 µg/mL,0.41 ± 0.1 µg/mL,> 64 µg/mL,–,–,–,–,3.13 ± 2.94 µg/mL,–,–,–
